# Measured values published in patent US8962830B2, “Protein kinase inhibitors and methods of treatment” (The Walter and Eliza Hall Institute of Medical Research, priority 2010, dated 2015).
# Target: T1, Src recombinant enzyme, N-terminally His6 tagged full-length human protein (Homo sapiens, UniProt P12931)
# T1 construct: Src recombinant enzyme was purchased as N-terminally His6 tagged full-length human protein; His6 (N); purchased
# Experiment: SRC kinase inhibition assay (AlphaScreen)
# Assay type: biochemical
# Settings: 80 μM ATP, 90 minutes at 30 degree Celsius
# Method: Protocol for SRC Kinase Inhibition Assay. Compounds of the invention were tested for in vitro activity in the following assay: A biotin labeled peptide was used as substrate (amino acid sequence: Biotin-[…]). Src recombinant enzyme was purchased as N-terminally His6 tagged full-length human protein. The 15 μL assay reactions were run in Greiner brand white 384-well low volume plates. […] Compounds were added in a volume of 100 nL from dilution series made up in DMSO, positive and negative control reactions receiving the same volume DMSO without compounds. The plates were sealed with adhesive seals and incubated for 90 minutes at 30 degree Celsius. The reactions were stopped with the detection reagents added at the same time. Product formation was quantified as photochemiluminescence between PerkinElmer AlphaScreenTM beads, using Streptavidin-coated donor and anti-phosphotyrosine (P-[…]) acceptor beads. […] Plates were incubated for 5 hours before being read on a PerkinElmer EnVisionTM plate reader in HTS AlphascreenTM mode. IC50 values were obtained by calculating percent inhibition (% I) for each reaction relative to controls on the same plate (% [SMILES] where CN/CP are the averages of the negative/positive reactions, respectively), then fitting the % I data vs. compound concentration [I] to % I=([…])))) where A is the lower asymptote, B is the upper asymptote, C is the IC50 value, and D is the slope factor.
# T1 sequence (P12931 whole entry): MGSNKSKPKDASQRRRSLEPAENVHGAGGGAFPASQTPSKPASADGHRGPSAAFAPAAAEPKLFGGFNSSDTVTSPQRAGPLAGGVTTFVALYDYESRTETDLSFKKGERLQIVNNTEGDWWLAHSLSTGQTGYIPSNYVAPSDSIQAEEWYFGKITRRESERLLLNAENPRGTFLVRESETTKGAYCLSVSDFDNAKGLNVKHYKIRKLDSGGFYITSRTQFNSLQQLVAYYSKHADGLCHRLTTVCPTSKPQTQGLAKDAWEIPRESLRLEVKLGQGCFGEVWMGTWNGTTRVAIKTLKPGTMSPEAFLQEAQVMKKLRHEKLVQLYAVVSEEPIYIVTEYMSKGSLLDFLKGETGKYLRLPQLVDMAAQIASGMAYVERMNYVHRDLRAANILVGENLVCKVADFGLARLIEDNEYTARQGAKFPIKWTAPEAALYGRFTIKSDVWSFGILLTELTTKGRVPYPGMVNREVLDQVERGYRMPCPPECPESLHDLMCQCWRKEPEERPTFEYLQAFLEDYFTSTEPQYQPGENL
row,Structure (SMILES),IC50 [nM]
1,Cc1ccc(-c2nn(C(C)(C)CNC(=O)c3cc(C)ccn3)c3ncnc(N)c23)cc1 [Example 65],100 to 1000
2,Cc1ccc(-c2nn(C(C)(C)CNC(=O)c3cccc(C)n3)c3ncnc(N)c23)cc1 [Example 73],1000 to 10000
3,Cc1ccc(-c2nn(C(C)(C)CNC(=O)c3ccccc3)c3ncnc(N)c23)cc1 [Example 11],100 to 1000
4,Cc1ccc(-c2nn(C(C)(C)CNC(=O)c3cc(N4CCOCC4)ccn3)c3ncnc(N)c23)cc1 [70 (compound 70C)],100 to 1000
5,Cc1ccc(-c2nn(C(C)(C)CNC(=O)CCCc3ccc4c(c3)OCCO4)c3ncnc(N)c23)cc1 [Example 36],100 to 1000
6,Cc1ccc(-c2nn(C(C)(C)CNC(=O)c3ccncn3)c3ncnc(N)c23)cc1 [Example 62],1 to 100
7,Cc1ccc(-c2nn(C(C)(C)CNC(=O)c3cccc(F)n3)c3ncnc(N)c23)cc1 [Example 41],100 to 1000
8,Cc1ccc(-c2nn(C(C)(C)CNC(=O)c3ccc(CN)cc3)c3ncnc(N)c23)cc1 [13 (compound 13C)],1 to 100
9,Cc1ccc(-c2nn(C(C)(C)CNc3ncccn3)c3ncnc(N)c23)cc1 [Example 88],100 to 1000
10,Cc1ccc(-c2nn(C(C)(C)CNC(N)=S)c3ncnc(N)c23)cc1 [6 (compound 6B)],1 to 100
11,Cc1ccc(-c2nn(C(C)(C)CNC(=O)CCN3CCOCC3)c3ncnc(N)c23)cc1 [Example 37],100 to 1000

# Test system: LIM1215
# Experiment: Cellular activity, MTT cell growth assay, LIM1215
# Assay type: cell-based
# Settings: LIM1215, 96 h, read-out: LIM1215 (cellular data)
# Method: (§1) A. Cells, Inhibitors and Incubation
# (§2) 1. Cell Lines • LIM 1899 colon carcinoma derived epithelial cells were grown in RPMI+Adds^1+10% FCS. ^1 Additives for culture of LIM cell lines: 10 μM thioglycerol, 0.025 U/mL insulin, 1 μg/mL hydrocortisone
# (§3) 2. Cell Plating in 96 Well Plate. • Assay medium: RPMI+Adds+5% FCS • Cells are trypsinized, washed once in assay medium and brought to the required concentration as described below: • Need 10^4 cells per well in 100 μL per well=10^5 per mL for plating • After washing, cells were resuspended in 5 mL and counted (1×T75 flask gives approx 2−3×10 eg^6 per mL). • Cells were then diluted to 10^5 cells/mL (need 10 mL minimum per plate). • Eg. Cell count in 5 mL is 25×10^5/mL • For 10^5/mL, dilute 1 mL to 25 mL • 100 μL per well cells were plated with multistepper pipette, over the whole plate. Plates were incubated overnight at 37° C.+5% CO2 incubator.
# (§4) 3. Inhibitor Stocks • Inhibitors were dissolved in DMSO for 10 mM stocks. MW and amount of compound given was used to calculate the volume required for each. • 4× the highest concentration of the compound in the assay was calculated to prepare the working stocks. • eg 1st well final concentration in assay was 10 μM. • Therefore working stock was 40 μM • Stock solution is 10 mM→40 μM=4 μl in 1.0 mL assay medium for working stock.
# (§5) 4. Plate Plan: • Rows A,B: Inhibitor 1 • Rows C,D: Inhibitor 2 • Rows E,F: Inhibitor 3 • Row G: RPMI+Adds+5% FCS (=maximum growth) • Row H: RPMI+Adds serum free (=minimum growth)
# (§6) 5. Titration of Inhibitors • A 96 well plate was used to titrate the inhibitors for each assay plate: • 150 μL assay medium was added to each well of a 96 well plate. • 150 μL of Inhibitor 1 working stock was added wells A1 and B1. • Repeated with Inhibitor 2 to C1 and D1 • Repeated with Inhibitor 3 to E1 and F1 • Serial ½ dilutions were performed across the plate, rows A to F, left to right with 150 μL.
# (§7) 6. Transfer Titrated Inhibitors to Cell Assay Plate: Final Volume 200 μl • Using a multichannel pipette, 100 μL was transferred from the corresponding wells of the titration plate to the cell assay plate, rows A to G. • Row H: medium was carefully removed from the cell wells with a 200 μL tip, and replaced with 200 μL serum free medium.
# (§8) 7. Incubation • Plates were incubated for 4 days at 37° C. with 5% CO2.
# (§9) B. Use of MTT to Measure Cell Growth
# (§10) 1. MTT Preparation and Storage • MTT Sigma M-2128 5 g • Dissolved in PBS, at 5 mg/mL • 5 g bottle dissolved in 1 liter PBS (some impurities remain) • Filter sterilized and aliquoted in 50 mL tubes, stored at −20° C. • As needed, 50 mL tube was thawed and aliquoted in 5 mL tubes, re-stored at −20° C. • Stable at 4° C. for 1 month (unstable if left at 37° C. too long while thawing)
# (§11) 2. MTT Solvent • a. 1M HCl: • Mixed 44.6 mL conc HCl (11.2M) in 500 mL DDW • b. Acidified isopropanol (Isopropanol with 0.04 N HCl): • Mixed 20 mL 1M HCl with 480 mL isopropanol (Propan-2-ol, iso-Propyl Alcohol)
# (§12) 3. MTT Assay • After cell incubation (above): • Added 10 μL MTT to each well. • Incubated 4 hrs in 37° C. incubator. • Spun plates, 5 min, 1500 rpm. • Carefully flicked out medium into the sink, without disturbing the crystals. • Added 200 μL acidified isopropanol per well. • Placed on plate shaker, RT, speed 6.5, for 10 min-30 min. • Read OD of plates on Thermo Multiskan Ex, at 560/690 nm.
# (§13) • Mosmann, T. • Rapid colorimetric assay for cellular growth and survival: application to proliferation and cytotoxic assays. Journal of Immunological Methods (1983), 65:55-63. Table with Examples of Cellular Data
# (§14) The compounds in this invention display cellular activities against a range of tumour or transformed cell lines in particular colon cancer cell lines such as LIM1215, LIM2537 and LIM1899.
row,Structure (SMILES),IC50 [nM]
1,"Cc1ccc(-c2nn(C(C)(C)C)c3ncnc(N)c23)cc1 [PP1, reference compound]",250

# Same assay, conditions: LIM1215, 96 h; MTT, 4 days incubation; read-out: LIM1215 (cellular data)
row,Structure (SMILES),IC50 [nM]
1,"Cc1nc(Nc2ncc(C(=O)Nc3c(C)cccc3Cl)s2)cc(N2CCN(CCO)CC2)n1 [Dasatinib, reference compound]",2000
2,Cc1ccc(-c2nn(C(C)(C)CNC(=O)c3cc(C)ccn3)c3ncnc(N)c23)cc1 [Example 65],960
3,Cc1ccc(-c2nn(C(C)(C)CNC(=O)c3ccncn3)c3ncnc(N)c23)cc1 [Example 62],250

# Test system: LIM2537
# Experiment: Cellular activity, MTT cell growth assay, LIM2537
# Assay type: cell-based
# Settings: 96 h, 4 days incubation
# Method: as §1, §2, §3, §4, §5, §6, §7, §8, §9, §10, §11, §12, §13, §14
row,Structure (SMILES),IC50 [nM]
1,CC(C)(CNC(=O)c1ccccc1)n1nc(-c2ccc(Cl)cc2)c2c(N)ncnc21 [74 (compound 74F)],> 10000

# Test system: RasNIH3T3
# Experiment: Cellular activity, MTT cell growth assay, RasNIH3T3
# Assay type: cell-based
# Settings: 96 h, read-out: RasNIH3T3 (cellular data)
row,Structure (SMILES),IC50 [nM]
1,"Cc1ccc(-c2nn(C(C)(C)C)c3ncnc(N)c23)cc1 [PP1, reference compound]",9250

# Same assay, conditions: 96 h; MTT, 4 days incubation; read-out: RasNIH3T3 (cellular data)
row,Structure (SMILES),IC50 [nM]
1,"Cc1nc(Nc2ncc(C(=O)Nc3c(C)cccc3Cl)s2)cc(N2CCN(CCO)CC2)n1 [Dasatinib, reference compound]",9000 to 12000
2,Cc1ccc(-c2nn(C(C)(C)CNC(=O)c3cc(C)ccn3)c3ncnc(N)c23)cc1 [Example 65],1670
3,Cc1ccc(-c2nn(C(C)(C)CNC(=O)c3ccncn3)c3ncnc(N)c23)cc1 [Example 62],350

# Test system: LIM 1899 colon carcinoma derived epithelial cells
# Experiment: Cellular activity, MTT cell growth assay, LIM1899
# Assay type: cell-based
# Settings: 96 h, 4 days incubation
# Method: as §1, §2, §3, §4, §5, §6, §7, §8, §9, §10, §11, §12, §13, §14
row,Structure (SMILES),IC50 [nM]
1,"Cc1nc(Nc2ncc(C(=O)Nc3c(C)cccc3Cl)s2)cc(N2CCN(CCO)CC2)n1 [Dasatinib, reference compound]",1200
2,CC(C)(CNC(=O)c1ccccc1)n1nc(-c2ccc(Cl)cc2)c2c(N)ncnc21 [74 (compound 74F)],> 20000
3,Cc1ccc(-c2nn(C(C)(C)CNC(=O)c3cc(C)ccn3)c3ncnc(N)c23)cc1 [Example 65],900
4,Cc1ccc(-c2nn(C(C)(C)CNC(=O)c3cccc(C)n3)c3ncnc(N)c23)cc1 [Example 73],1100
5,Cc1ccc(-c2nn(C(C)(C)CNC(=O)c3ccccc3)c3ncnc(N)c23)cc1 [Example 11],1700

# Test system: not listed separately
# Experiment: Solubility
# Assay type: physicochemical
# Settings: not given
row,Structure (SMILES),solubility
1,CC(C)(C)n1nc(-c2ccc(Cl)cc2)c2c(N)ncnc21 [PP2],poorly soluble
2,"Cc1ccc(-c2nn(C(C)(C)C)c3ncnc(N)c23)cc1 [PP1, reference compound]",poorly soluble

# Test system: SFKs (Src family kinases)
# Experiment: not given
# Settings: reported; no discrimination between family members; cited from earlier work
row,Structure (SMILES),inhibition of SFKs
1,CC(C)(C)n1nc(-c2ccc(Cl)cc2)c2c(N)ncnc21 [PP2],potent inhibitors
2,"Cc1ccc(-c2nn(C(C)(C)C)c3ncnc(N)c23)cc1 [PP1, reference compound]",potent inhibitors
